Test system: eyelash growth
Assay: Randomized double blind clinical trial of eyelash growth, daily topical application to root of upper eyelashes for 4 weeks
Assay type: in vivo, human
Experimental: These solutions were each applied daily to the roots of the upper right and left eyelashes of the patients in a quantity of approximately 0.0164 ml. Patients applied the eyelash product daily for 4 weeks on the root of the upper eyelashes only since some of the solution used may ultimately be deposited on the lower lash interfering with the studies' parameters. Methods: 34 patients were randomly assigned to one of three different treatment groups based on a standard treatment of the upper right lash and different treatments of the upper left eye lash with varying concentrations of the active product and a placebo. Age range of the patients was 20-56; 33 female, 1 male. Three different treatment Groups were constructed based on RIGHT EYE lash treatment/LEFT EYE lash treatment and defined as Groups A/B, A/D and A/C). All patients used Solution A on the right eye lash which is the “Control Group”, with Solutions B, D, and C used on the left eye lash of these same patients. Group A/B (14 patients) used Solution A on the upper right lash and Solution B on the upper left lash. Group A/D (9 patients) used Solution A on the upper right lash and Solution D on the upper left lash. Group A/C (11 patients) used Solution A on the upper right lash and the placebo, Solution C, on the upper left lash. After four (4) weeks upper RIGHT eyelash measurement were made for all 34 randomized patients. The upper LEFT eyelash measurement were made for the 14 patients using Solution B, for the 9 patients using Solution D and the 11 patients using Solution C (the placebo). Eyelash measurements for both the upper right and left eyelashes were taken in the medial, middle and lateral locations on both upper and lower eyelids using micocalipers and measured to 0.1 mm. The mean of the six measurements were then used to calculate the eyelash length for each eye. Measurements were taken at the initiation of the study to use as standard base. The technicians performing the measurements were blinded to the patient group assignment. A paired two-tailed Student's t-Test was used for statistical analysis. All patients enrolled into the study underwent a standard informed consent procedure.

## CCNC(=O)CCC/C=C\C[C@@H]1[C@@H](/C=C/[C@@H](O)COc2ccccc2)[C@H](O)C[C@@H]1O [active agent, (z)-7-((1R,2R,3R,5S)-3,5-dihydroxy-2-((R,E)-3-hydroxy-4-phenoxybut-1-enyl)cyclopentyl)-N-ethylhept-5-enamide]
4 weeks of daily use, placebo Solution C growth 0.63 mm
  increase lash growth relative to placebo (growth with active / growth with placebo ×100): 268.25%
9/34 patients, 4 weeks of daily use
  patients subjectively reporting an increase in the thickness or fullness of their eyelashes: 26%
19/34 patients, typically resolved after several days of use
  patients reporting mild or minimal irritation: 56%
34 patients, daily topical use
  patients reporting moderate irritation and discontinuing: One patient reported moderate irritation and discontinued the product
